From patent publication US8962918B2, “Polynucleotide sequence of fruit softening associated A-mannosidase and its uses for enhancing fruit shelf life” (National Institute of Plant Genome Research, priority 2008, dated 2015)
“Also recorded” adds a separate entry of the source.

Assays:
[1] = test system: α-mannosidase gene expression; assay: Geraniol/ACC treatment of seedlings, real-time RT-PCR of mannosidase expression; assay type: in vivo, tomato (Pusa Ruby); settings: for regulation of α-mannosidase expression: rin and/or wild type, relative to control
Text: Geraniol is an acyclic dietary monoterpene, having in vitro and in vivo antitumor activity against various cancer cell lines and is therefore considered as a new class of agents for cancer chemoprevention. It was also reported that geraniol interferes with the membrane functions of Candida albicans and Saccharomyces cervisiae. […] This instigated us to further analyze the role of geraniol on α-mannosidase induction in pleiotropic rin mutant. The rin seedlings were fed with 10% geraniol and samples collected.
RNA was isolated according to the Lithium chloride method and quantified using nanodrop (ND-100). 5 μg of total RNA was reverse transcribed to cDNA using superscript II (Invitrogen). Quantitative RT-PCR was performed using light Cycler Version 4.05 (Roche diagnostics) with cyber green. The cycle consisted of initial 10 min Taq activation at 95° C. followed by 45 cycles, consisting of 10 s at 94° C., 10 s at 55° C. and 10 s at 72° C. Then the melt curve analysis was performed to verify the fidelity of the amplification. Using the 2^−ΔΔ CT method, the data is presented as the fold change in gene expression normalized to an endogenous reference gene and relative to the control. The gene encoding actin was used as the endogenous control.
Pusa Ruby seeds were sterilized and germinated on MS medium. After 15 days the seedlings were transferred to a liquid media containing 10 mM geraniol in 20% DMSO or 1 mM ACC (1-aminocyclopropane-1-carboxylic acid) in water. The RNA was isolated from the harvested sample and reverse transcribed to cDNA for real-time RT-PCR analysis. Expression was calculated relative to the control seedlings (0 hr).

tomato α-mannosidase [2] = target: T1, tomato α-mannosidase (Solanum lycopersicum, UniProt D3TI68); assay: N-linked oligosaccharide cleavage, HPAE chromatography; assay type: biochemical; settings: incubated at 37° C. overnight, Carbopac PA-1 column
Procedure: (§1) The temperature and pH optimum for the enzyme was 45° C. and pH 6.0, respectively. […] To identify the nature of the tomato α-mannosidase it was resolved on SDS-PAGE and subjected to PAS staining, the protein stained positive for glycoproteins. […] In order to correlate specific activity at particular ripening stage with the protein accumulation, immunoblot analysis of all the stages was done using polyclonal antibody raised against 70 kD subunit of the protein homologus to α-mannosidase. […] Our finding was further reinforced by a report in Arabidopsis which classified α-mannosidase homologue (Q8LPJ3) into cell wall protein with a signal peptide for secretion. To decipher the role of α-mannosidase on N-glycans and their processing, we targeted three N-linked oligosaccharides (Oligomannose-3, Oligomannose-5 and Oligomannose-9) commonly found in the fruit pericarp. To verify its action on N-glycans, α-mannosidase was incubated with N-linked oligosaccharides at 37° C. overnight and the reaction mixture was resolved on Carbopac PA-1 column.
One μg of protein was incubated with 100 ng each of N-linked oligosaccharides (Dextra, U.K) at 37° C. overnight and the sample was filtered through PVDF membrane to remove the enzyme. 10 μl of the filtered sample was used for the analysis. An HPAE-PAD system (Dionex DX 500 BioLC) equipped with a gradient pump (GP 40), an anion exchange column (Carbopac PA-1, 4×250 mm) an eluant degas module (EDM-2) for pressurizing the eluants with argon was used for the analysis of monosaccharides. The separated monosaccharides were detected by an ED 40 detector equipped with a gold electrode and an Ag/AgCl reference electrode. The resulting chromatographic data was integrated and plotted using a PC based oracle 2 data acquisition system (Indtech Analytical, Bombay), The standard (mannose) was injected at a concentration of 100 nmoles before and after the analysis of each sample to confirm the results. This confirmed the N-glycan processing ability of mannosidase

[3] = cited from earlier work
[4] = substrate: O=[N+]([O-])c1ccc(O[C@H]2O[C@H](CO)[C@@H](O)[C@H](O)[C@@H]2O)cc1; assay: Mannosidase enzyme assay and biochemical characterization; set-up: species or system tomato (Solanum lycopersicum); settings: other: purified tomato enzyme; pH 6.0
Procedure: as §1
Mannosidase was assayed in one ml of the reaction mixture consisting of 940 μl of MQ, 20 μl of 20 mM substrate (pNP-α-D-mannopyrinoside) and 20 μl aliquot of the enzyme at 37° C. for 15 min along with a blank devoid of the enzyme. […] The colour developed as result of pNP release was recorded at 405 nm and quantified using a standard curve.

tomato α-mannosidase [5] = target: T1, tomato α-mannosidase; assay: as above
Procedure: as §1
Mannosidase was assayed in one ml of the reaction mixture consisting of 940 μl of MQ, 20 μl of 20 mM substrate (pNP-α-D-mannopyrinoside) and 20 μl aliquot of the enzyme at 37° C. for 15 min along with a blank devoid of the enzyme. The reaction was stopped by adding of 40 μl of 0.5M Na2CO3. The colour developed as result of pNP release was recorded at 405 nm and quantified using a standard curve.

NC1(C(=O)O)CC1 [ACC, 1-aminocyclopropane-1-carboxylic acid]
regulation of α-mannosidase expression ([1]; seedlings): up regulate

CC(=O)N[C@H]1[C@H](O[C@H]2[C@H](O)[C@@H](NC(C)=O)C(O)O[C@@H]2CO)O[C@H](CO)[C@@H](O[C@@H]2O[C@H](CO[C@H]3O[C@H](CO)[C@@H](O)[C@H](O)[C@@H]3O)[C@@H](O)[C@H](O[C@H]3O[C@H](CO)[C@@H](O)[C@H](O)[C@@H]3O)[C@@H]2O)[C@@H]1O (stereo partly drawn) [Oligomannose-3]
cleavage by α-mannosidase (tomato α-mannosidase [2]): able to cleave terminal mannose residue/s

CC(=O)N[C@H]1[C@H](O[C@H]2[C@H](O)[C@@H](NC(C)=O)C(O)O[C@@H]2CO)O[C@H](CO)[C@@H](O[C@@H]2O[C@H](CO[C@H]3O[C@H](CO[C@H]4O[C@H](CO)[C@@H](O)[C@H](O)[C@@H]4O)[C@@H](O)[C@H](O[C@H]4O[C@H](CO)[C@@H](O)[C@H](O)[C@@H]4O)[C@@H]3O)[C@@H](O)[C@H](O[C@H]3O[C@H](CO)[C@@H](O)[C@H](O)[C@@H]3O)[C@@H]2O)[C@@H]1O (stereo partly drawn) [Oligomannose-5]
cleavage by α-mannosidase (tomato α-mannosidase [2]): able to cleave terminal mannose residue/s

CC(=O)N[C@H]1[C@H](O[C@H]2[C@H](O)[C@@H](NC(C)=O)C(O)O[C@@H]2CO)O[C@H](CO)[C@@H](O[C@@H]2O[C@H](CO[C@H]3O[C@H](CO[C@H]4O[C@H](CO)[C@@H](O)[C@H](O)[C@@H]4O[C@H]4O[C@H](CO)[C@@H](O)[C@H](O)[C@@H]4O)[C@@H](O)[C@H](O[C@H]4O[C@H](CO)[C@@H](O)[C@H](O)[C@@H]4O[C@H]4O[C@H](CO)[C@@H](O)[C@H](O)[C@@H]4O)[C@@H]3O)[C@@H](O)[C@H](O[C@H]3O[C@H](CO)[C@@H](O)[C@H](O)[C@@H]3O[C@H]3O[C@H](CO)[C@@H](O)[C@H](O)[C@@H]3O[C@H]3O[C@H](CO)[C@@H](O)[C@H](O)[C@@H]3O)[C@@H]2O)[C@@H]1O (stereo partly drawn) [Oligomannose-9]
cleavage by α-mannosidase (tomato α-mannosidase [2]): able to cleave terminal mannose residue/s

CC(C)=CCC/C(C)=C/CO [geraniol]
α-mannosidase transcript up regulated ([1]; rin mutant seedlings fed with 10% geraniol, after 30 min): up to 6 fold | up-regulation in mannosidase gene expression ([1]; seedlings, geraniol in 20% DMSO, after 30 min, compared to control (DMSO only)): up to 3 fold | regulation of α-mannosidase expression ([1]; seedlings): upregulated; also recorded: induced | solubility in water [3]: not soluble in water

B1: tomato α-mannosidase (Solanum lycopersicum) (protein)
chain: KYMVYNTSQGIVSGKLNVHLVPHTHDDVGWLKTVDQYYVGSNNSIQVACVQNVLDSLIPALLADKNRKFIYVEQAFFQRWWRNQSPGMQSTVKQLVNSGQLESINGGWCMHDEAATHYIDMIDQTTLGHKYIKQQFNVTPRIGWQIDPFGTFCCSGIPSGSKGWIRLSFLWDALTTKDREKRKIEKSLEVIWRGSKSLSSSTQIFSGAFPQNYEPPSKFYFEVNDDNSLPVQDDVNLFDYNVQERVNDFVAAALSQANITRTNHIMWTMGTDFKYQYAHTWFRNMDKLIHYVNQDGRVNALYSSPSIYTDAKYALDESWPLKTDDYFPYADRINAYWTGYFTSRPALKLYVRMMSGYYLAARQLEFFKGRIETGPTTEILADALAIAQHHDAVSGTPKQHVADDYAKRLFIGYKQAEDLVSNSLACMVESASASGCKNPQINFKQCPLLNISYCPPTEADLAPGKKLVVVVYNALGWKRTDVVRIPVVNKNVIVEDSTGKEIESQLLPIVKESIVIRNYYAAAYFGESPTSSPKYWLVFTATVPPLGFSSYVITSGKQAVAASIPQTFYKTDGSQSDAVEVGPGNLKLLYSANGAKFTQYFNKRNQVRSSLEQSFSYYSADDGSKDDYKDIQASGAYVFRPNGSFPIHPEGKVPATILRGPLLDEVHQNINSWIYQITRVYKEKEHVEVEFTVGPIPIDNGIGKELVTQIQTDIKSNKTFYTDSNGRDFLKRVRDYRADWDLQVNQPAAGNYYPINLGLFLKDNNNEFSVLVDRSVGGSSLVDGQLELMLHRRLLNDDGRGVAEALNETVCALGKCMGLTVQGKYYIRIDSLGEGAKWRRSFGQEIYSPLLLAFTEQDGDKFTKFPVPTFTGMDPSYSLPDNVAIITLQELEDHTVLLRLAHLYEVDEDKDLSTKASVELKRLFPKRKINKIREMSLSANQERVEMEKKRLKWKAEAPSDLRDVARGGPVDPTKLMVELAPMEIRTFVIDLSQSVPEGWKSHMSL
Km [4]: 4.6 mM

B2: tomato α-mannosidase: enzyme purified from pericarp of breaker stage tomato; SEQ ID NO: 2 (protein, listed as Solanum lycopersicum)
chain: MKNMGKFEIWFLILMVCGLWVVEAKYMVYNTSQGIVSGKLNVHLVPHTHDDVGWLKTVDQYYVGSNNSIQVACVQNVLDSLIPALLADKNRKFIYVEQAFFQRWWRNQSPGMQSTVKQLVNSGQLESINGGWCMHDEAATHYIDMIDQTTLGHKYIKQQFNVTPRIGWQIDPFGTFCCSGIPSGSKGWIRLSFLWDALTTKDREKRKIEKSLEVIWRGSKSLSSSTQIFSGAFPQNYEPPSKFYFEVNDDNSLPVQDDVNLFDYNVQERVNDFVAAALSQANITRTNHIMWTMGTDFKYQYAHTWFRNMDKLIHYVNQDGRVNALYSSPSIYTDAKYALDESWPLKTDDYFPYADRINAYWTGYFTSRPALKLYVRMMSGYYLAARQLEFFKGRIETGPTTEILADALAIAQHHDAVSGTPKQHVADDYAKRLFIGYKQAEDLVSNSLACMVESASASGCKNPQINFKQCPLLNISYCPPTEADLAPGKKLVVVVYNALGWKRTDVVRIPVVNKNVIVEDSTGKEIESQLLPIVKESIVIRNYYAAAYFGESPTSSPKYWLVFTATVPPLGFSSYVITSGKQAVAASIPQTFYKTDGSQSDAVEVGPGNLKLLYSANGAKFTQYFNKRNQVRSSLEQSFSYYSADDGSKDDYKDIQASGAYVFRPNGSFPIHPEGKVPATILRGPLLDEVHQNINSWIYQITRVYKEKEHVEVEFTVGPIPIDNGIGKELVTQIQTDIKSNKTFYTDSNGRDFLKRVRDYRADWDLQVNQPAAGNYYPINLGLFLKDNNNEFSVLVDRSVGGSSLVDGQLELMLHRRLLNDDGRGVAEALNETVCALGKCMGLTVQGKYYIRIDSLGEGAKWRRSFGQEIYSPLLLAFTEQDGDKFTKFPVPTFTGMDPSYSLPDNVAIITLQELEDHTVLLRLAHLYEVDEDKDLSTKASVELKRLFPKRKINKIREMSLSANQERVEMEKKRLKWKAEAPSDLRDVARGGPVDPTKLMVELAPMEIRTFVIDLSQSVPEGWKSHMSL
modifications: Protein sequence of alpha mannosidase
pH optimum (tomato α-mannosidase [5]): 6.0 | temperature optimum (tomato α-mannosidase [5]): 45 °C | thermal stability without considerable reduction in the activity (tomato α-mannosidase [5]; for 1 hr): ≤ 60 °C
